From patent US9409895B2, “Autotaxin inhibitors” (Novartis AG, priority 2012, dated 2016)
pIC50: −log10 of the molar value. Like-named read-outs stand apart in the source and are kept apart here.

Biological target: Recombinant human ATX (Homo sapiens (Human), UniProt Q13822)
Experiment: ATX inhibition assay (released choline, choline oxidase/HRP/Amplex Red fluorescence)
Type: biochemical
Method: LPC (oleoyl (18:1)) was purchased from Avant: Polar Lipids (Alabaster, Ala.) and solubilized in methanol to 20 mM. Amplex Red was obtained from Invitrogen Life Technologies (Paisley, UK) and dissolved in DMSO to 10 mM. Choline oxidase and horseradish peroxidase (HRP) were obtained from Sigma Aldrich (Dorset, UK) and dissolved in HBSS to 20 U/ml and 200 U/ml respectively. AH reagents were stored at −20° C. in single use aliquots. All experimental measurements were performed in assay buffer made up immediately prior to use (HBSS, 0.01% BSA essentially fatty acid free).
Recombinant human ATX was prepared at Novartis (Basel, CH) in a human embryonic kidney (HEK) cell preparation, and stored in single use aliquots of […] (26 μM) stocks stored at −80° C.
All experimental measurements were performed in black 384 well polystyrene (low volume, round bottom, Corning (3676)) plates. PerkinElmer EnVision (Fluorescence Intensity/Absorbance Monochromator) or Tecan Infinite 200 PRO series plate reader was used to detect change in fluorescent intensity.
ATX activity was determined by measurement of released choline in reactions containing ATX (10 nM), choline oxidase (0.1 U/ml), HRP (100 U/ml), amplex red (50 μM) and LPC 18:1 (10 μM). Compounds of the invention were prepared as 10 point serial dilutions from 1 μM in duplicate and pre-incubated with ATX at 37° C. for 20 minutes prior to the addition of remaining reagents. The liberated choline was measured from changes in fluorescence intensity (λex 530 nm, λem 590 nm) of the product resurofin at 37° C. every 2 minutes over a 40-minute period. ATX activity was measured as a slope of the linear portion of the progress curve, typically between 14 to 24 minutes.
Slope data was exported to Graphpad prism (Graphpad software, San Diego, Calif.) where data was fitted to equation 1. Y=Bottom+(Top−Bottom)/(1+10^((Log IC50−X)*HillSlope)) Equation 1: […]

| Compound | pIC50 (ATX 10 nM, LPC 18:1 10 μM, 37° C., 20 min pre-incubation, mean of n 2) | pIC50 |
| --- | --- | --- |
| CN(CCC1CCN(C(=O)OCc2cc(Cl)cc(C#N)c2)CC1)C(=O)c1c[nH]nn1 [Example 36, 3-Chloro-5-cyanobenzyl 4-(2-(N-methyl-1H-1,2,3-triazole-4-carboxamido)ethyl)piperidine-1-carboxylate] | 6.00 | – |
| (S)-3,5-Dichlorobenzyl 3-(4-(1H-1,2,3-triazol-4-yl)butanamido)pyrrolidine-1-carboxylate or (R)-3,5-Dichlorobenzyl 3-(4-(1H-1,2,3-triazol-4-yl)butanamido)pyrrolidine-1-carboxylate [Example 49a] | – | < 6.00 |
| (S)-3,5-Dichlorobenzyl 3-(4-(1H-1,2,3-triazol-4-yl)butanamido)pyrrolidine-1-carboxylate or (R)-3,5-Dichlorobenzyl 3-(4-(1H-1,2,3-triazol-4-yl)butanamido)pyrrolidine-1-carboxylate [Example 49b] | – | 6.58 |
